{
  "source": "patent US20240391928A1",
  "about": "“COMPOSITIONS FOR THE TREATMENT OF FOOD AND CHEMICAL ADDICTION AND METHODS OF MAKING AND USING SAME” (Duke University, priority 2021, published 2024)",
  "key": {"[1]": {"assay": "Pharmacokinetic analysis in C57BL/6 mice", "procedure": "Pharmacokinetic Analysis. Male C57BL/6 mice were used for pharmacokinetic studies and were purchased from Charles River Laboratories. DAT KO mice were backcrossed for >10 generations onto a C57BL/6J (Jackson Laboratory, Bar Harbor, ME) genetic background. Mice were bred and maintained on a standard 12:12 hour light:dark cycle, socially housed, and supplied with standard laboratory chow and water ad libitum, except during testing. […] Plasma, brain and liver samples were collected over 24 hours. […] The mean concentration from 3 animals at each time-point was used in the pharmacokinetic (PK) analysis. PK parameters were calculated with Phoenix WinNonlin Software (Ver. 8.0, Certara)."}, "hGHSR1a^WT [2]": {"biological_target": "T1, hGHSR1a^WT (Homo sapiens, UniProt Q92847)", "T1 sequence (Q92847 whole entry)": "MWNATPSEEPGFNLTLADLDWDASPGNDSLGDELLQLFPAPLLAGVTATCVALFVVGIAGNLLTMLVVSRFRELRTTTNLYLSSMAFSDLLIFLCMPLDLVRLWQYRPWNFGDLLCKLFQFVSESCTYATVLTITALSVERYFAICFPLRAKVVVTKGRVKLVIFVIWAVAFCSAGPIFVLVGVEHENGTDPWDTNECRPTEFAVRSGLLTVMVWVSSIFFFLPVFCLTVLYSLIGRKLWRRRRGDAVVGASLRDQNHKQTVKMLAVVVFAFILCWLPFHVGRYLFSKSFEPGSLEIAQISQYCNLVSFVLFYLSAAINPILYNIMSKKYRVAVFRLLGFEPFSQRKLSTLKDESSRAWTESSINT", "assay": "Gαq-dependent intracellular Ca2+ mobilization (iCa2+, miAeq)", "assay_type": "cell-based", "set-up": "HEK293/T (transient); HEK293S Gαq knockout (transient, NanoBiT Gαq)", "procedure": "Gαq-Dependent Intracellular Ca^2+ Mobilization. […] Cells were split into and seeded into 10 cm dishes without antibiotic selection and grown to confluency overnight. The next morning, cells were serum starved in 10 mL of clear opti-MEM (supplemented with L-glutamine and HEPES; Gibco, Waltham, MA) for 3-4 hours in a 37° C. incubator with 5% CO2. Then, 25 μL of coelenterazine H (NanoLight Technology, Pinetop, AZ) was added to each 10 mL dish and incubated for another 1-2 hours. For antagonist assays, test compounds were either added directly to the media in 10 cm dishes, or cells were collected by gentle washing/trituration and plated onto white, clear-bottomed 96-well plates for 30 minutes—1 hour. Once the coelenterazine H (or antagonist) incubation was complete, cells were harvested from the 10 cm dish by gentle washing/trituration and collected in a 15 mL conical tube. Cell suspensions were then immediately subjected to assay by injecting cells onto a white, clear-bottomed 96-well plate containing 2× test compounds. Luminescence was read without delay and for 10 seconds per well. To control for cell number variability, cells were lysed in 2× lysis buffer (100 mM CaCl2+0.2% Triton-X) immediately following the assay. The max ligand-induced response (Ca^2+ mobilization: net-miAeq) over 10 seconds was normalized by dividing the ligand-induced luminescence counts (L-miAeq) by the ligand-induced luminescence counts (L-MiAeq) plus the luminescence measured upon cell lysis (Lysis-miAeq). Relative, lysis-normalized data were then normalized to the appropriate control/reference condition.\n(§1) For experiments with WT and Gt KO HEK293/S cells, […] of hGHSR1a^WT, 10 μg of miAEQ, and 2.5 μg of pcDNA3.1 was transiently transfected into 10 cm dishes and incubated overnight. […] Twenty-four hours later, experiments proceeded in accordance with the procedures described above. To control for any possible kinetic differences in genetically modified cell lines or GHSR1a variants, the average ligand-induced response over 10 seconds was calculated, then normalized by dividing the L-miAeq by the L-miAeq plus the Lysis-miAeq and normalized to the appropriate control/reference condition."}, "hGHSR1a^WT [3]": {"biological_target": "T1, hGHSR1a^WT", "details": "100 nM, 45 minutes", "protocol": "U2OS cells stably expressing the human GHSR1a^WT and β-arr2^GFP were seeded onto 35 mm MatTek (Ashland, MA, USA) glass coverslip dishes in opti-MEM supplemented with 2% FBS and antibiotic-antimycotic and grown overnight in a humified incubator (5% CO2, 37° C.). The next morning, media was aspirated and replaced with fresh, serum-free opti-MEM (supplemented with antibiotic-antimycotic). […] Next, treatment was terminated by aspiration of media, a PBS wash, and fixation with 4% paraformaldehyde (20 minutes, room temperature (RT)). Fixed cells were either stored at 4° C. or immediately imaged for β-arr2^GFP translocation with a Zeiss LSM 510 meta confocal microscopy."}, "hGHSR1a^WT-RLucII": {"biological_target": "T2, hGHSR1a^WT-RLucII (Homo sapiens, UniProt Q92847)", "T2 construct": "expressed in transfected cells; host or cells: HEK293/T, transient", "assay": "Bystander BRET endosomal trafficking (2xFYVE-Venus)", "assay_type": "cell-based", "details": "60-minute post-treatment", "procedure": "Bystander BRET (bBRET). hGHSR1a^WT-RLucII and plasma membrane marker, MyrPalm^mVenus, or the early endosomal marker, 2×-FYVE^mVenus, was transiently co-transfected in HEK293/T cells at a ratio of 1:5 or 1:12.5, respectively. […] Plates were then read by a Mithras 940 plate reader every 5 minutes over 1 hour (MyrPalm^mVenus) or 2 hours (2×FYVE^mVenus) to determine a BRET ratios. To generate CR curves, the average net BRET over 60 minutes post-treatment was used."}, "hGHSR1a^A204E": {"biological_target": "hGHSR1a^A204E (Homo sapiens, UniProt Q92847, A204E)", "sequence (Q92847 whole entry A204E)": "as the sequence (Q92847 whole entry) above, with A204E counted along it", "sequence (P32121 whole entry partner)": "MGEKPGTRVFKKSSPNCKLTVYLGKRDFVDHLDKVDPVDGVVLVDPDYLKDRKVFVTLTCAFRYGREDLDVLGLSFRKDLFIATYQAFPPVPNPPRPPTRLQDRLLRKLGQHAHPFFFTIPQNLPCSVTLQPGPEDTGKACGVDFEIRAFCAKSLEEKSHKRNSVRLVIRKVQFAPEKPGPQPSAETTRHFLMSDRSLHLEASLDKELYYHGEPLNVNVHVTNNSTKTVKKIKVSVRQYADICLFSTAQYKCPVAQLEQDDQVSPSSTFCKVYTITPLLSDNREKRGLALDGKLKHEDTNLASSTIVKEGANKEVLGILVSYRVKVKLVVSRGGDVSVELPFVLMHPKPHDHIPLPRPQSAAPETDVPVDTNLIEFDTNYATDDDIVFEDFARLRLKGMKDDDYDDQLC", "protocol": "β-arr2 recruitment: In agonist and antagonist assays of NanoBiT-based β-arr2 recruitment, hGHSR1a^WT-Lg^BiT and ^SmBiT-β^WT were transiently co-transfected at a 1:1 ratio (250 μg each) into monolayers of HEK293/T cells on 6-well plates along with 2 μg of pcDNA3.1. For assays employing the Ala204Glu variant, hGHSR1a^A204E-Lg^BiT was transfected at 2×hGHSR1a^WT-Lg^BiT, as performed for iCa^2+ assays with hGHSR1a^A204E described above. For GHSR1a-β-arr2 saturation assays, a fixed amount of hGHSR1a^WT-Lg^BiT cDNA (250 μg) was transfected with 0, 62.5 (1:0.25), 125 (1:0.5), 250 (1:1), 500 (1:2), or 1000 (1:4) μg of ^SmBiTβ-arr^WT. The morning after transfection, media was exchanged and after 4-6 hours, cells were then plated on white 96-well, clear-bottomed assay plates at a density of 45,000 cells/well in opti-MEM supplemented with 2% FBS and antibiotic/antimycotic. The following morning, opti-MEM was removed and cells were incubated with 70-80 μL HBSS supplemented with 20 mM HEPES (pH 7.4) for 4 hours. Cells were then treated with 10 μL of coelenterazine H (5 μM final) for 15-20 minutes at room temperature. Cells were then stimulated with 10 μL of test compounds and 2 minutes later, luminescence was measured over 5 minutes, which encompassed the peak β-arr2 recruitment signal."}, "GHSR1a^E197A": {"biological_target": "T3, GHSR1a^E197A (Homo sapiens, UniProt Q92847, E197A)", "T3 construct": "expressed in transfected cells; host or cells: HEK293/T", "T3 sequence (Q92847 whole entry E197A)": "as the sequence (Q92847 whole entry) above, with E197A counted along it", "assay": "iCa2+ at E197A mutant", "assay_type": "cell-based", "procedure": "as §1"}, "GHSR1a^N305A": {"biological_target": "T4, GHSR1a^N305A (Homo sapiens, UniProt Q92847, N305A)", "T4 construct": "expressed in transfected cells; host or cells: HEK293/T", "T4 sequence (Q92847 whole entry N305A)": "as the sequence (Q92847 whole entry) above, with N305A counted along it", "assay": "TRUPATH Gαq dissociation at N305A mutant", "assay_type": "cell-based"}, "GPCRome (320 receptors)": {"test_system": "GPCRome (320 receptors)", "assay": "PRESTO-Tango GPCRome β-arr2 recruitment screen, other receptors", "assay_type": "cell-based", "details": "N8279 1 μM; hit >3-fold", "procedure": "Hits were defined as >3-fold activation above baseline. […] The assay quality was assessed by plotting duplicate, independent trial averages (derived from 4 independent wells) for each receptor as a point (X,Y). The corresponding plot of points for an ideal assay were fit by a regression line with the slope=1."}},
  "data": [
    {"smiles": "COc1ccc(C(=O)c2c(C(=O)NCCCN(C)C)oc3ccc(Cl)cc3c2=O)cc1OC", "note": "[Example N8279, 6-Chloro-3-(3,4-dimethoxybenzoyl)-N-(3-(dimethylamino)propyl)-4-oxo-4H-chromene-2-carboxamide]", "values": [
      {"measurement": "brain:plasma ratio", "setting": "[1]; IP", "result": "0.6-0.9"},
      {"measurement": "AUCextrap", "setting": "[1]; IP 5 mg/kg, brain", "result": 7.1, "unit": "%"},
      {"measurement": "AUC ratio (tissue/plasma)", "setting": "[1]; IP 5 mg/kg, brain/plasma", "result": 0.6},
      {"measurement": "AUCextrap", "setting": "[1]; IP 5 mg/kg, liver", "result": 0.1, "unit": "%"},
      {"measurement": "AUC ratio (tissue/plasma)", "setting": "[1]; IP 5 mg/kg, liver/plasma", "result": 49},
      {"measurement": "AUCextrap", "setting": "[1]; IP 5 mg/kg, plasma", "result": 0.6, "unit": "%"},
      {"measurement": "AUCextrap", "setting": "[1]; IV 1 mg/kg, brain", "result": 10, "unit": "%"},
      {"measurement": "AUC ratio (tissue/plasma)", "setting": "[1]; IV 1 mg/kg, brain/plasma", "result": 0.8},
      {"measurement": "AUCextrap", "setting": "[1]; IV 1 mg/kg, liver", "result": 0.2, "unit": "%"},
      {"measurement": "AUC ratio (tissue/plasma)", "setting": "[1]; IV 1 mg/kg, liver/plasma", "result": 40},
      {"measurement": "AUCextrap", "setting": "[1]; IV 1 mg/kg, plasma", "result": 2.4, "unit": "%"},
      {"measurement": "AUCextrap", "setting": "[1]; PO 5 mg/kg, brain", "result": 24, "unit": "%"},
      {"measurement": "AUC ratio (tissue/plasma)", "setting": "[1]; PO 5 mg/kg, brain/plasma", "result": 0.9},
      {"measurement": "AUCextrap", "setting": "[1]; PO 5 mg/kg, liver", "result": 0.1, "unit": "%"},
      {"measurement": "AUC ratio (tissue/plasma)", "setting": "[1]; PO 5 mg/kg, liver/plasma", "result": 77},
      {"measurement": "AUCextrap", "setting": "[1]; PO 5 mg/kg, plasma", "result": 11, "unit": "%"},
      {"measurement": "brain half-life (t1/2) after IP and PO administration", "setting": "[1]; brain, IP and PO 5 mg/kg", "result": "6.6 to 11", "unit": "h"},
      {"measurement": "bioavailability", "setting": "[1]; male, C57BL/6, mouse, in vivo, ip, 5 mg/kg", "result": 27, "unit": "%"},
      {"measurement": "AUC(0-t)", "setting": "[1]; male, C57BL/6, mouse, liver, iv, 1 mg/kg", "result": 57100, "unit": "ng·h/mL"},
      {"measurement": "Cmax", "setting": "[1]; read-out: peak concentration (Cmax) in brain, IP 5 mg/kg, brain", "result": 259, "unit": "nM"},
      {"measurement": "iCa2+ EC50, fold more potent than own GHSR1a binding IC50", "setting": "hGHSR1a^WT [2]", "result": 41, "unit": "fold"},
      {"measurement": "iCa2+ potency, fold less potent than L585", "setting": "hGHSR1a^WT [2]", "result": 3.4, "unit": "fold"},
      {"measurement": "iCa2+ potency, fold less potent than MK-0677", "setting": "hGHSR1a^WT [2]", "result": 5.3, "unit": "fold"},
      {"measurement": "iCa2+ potency, fold more potent than ghrelin", "setting": "hGHSR1a^WT [2]", "result": 8.9, "unit": "fold"},
      {"measurement": "increase in ghrelin's iCa2+ potency by N8279", "setting": "hGHSR1a^WT [2]; N8279 10 μM, concomitant", "result": "~3", "unit": "fold"},
      {"measurement": "modulation of ghrelin-induced iCa2+ in words", "setting": "hGHSR1a^WT [2]; concomitant N8279", "result": "weak ago-PAM activity"},
      {"measurement": "iCa2+ efficacy in words", "setting": "hGHSR1a^WT [2]; relative to ghrelin", "result": "full agonist"},
      {"measurement": "β-arr2^GFP translocation in words", "setting": "hGHSR1a^WT [3]", "result": "minimal response"},
      {"measurement": "endosomal transit, fold less potent than ghrelin (bBRET 2xFYVE)", "setting": "hGHSR1a^WT-RLucII", "result": 32, "unit": "fold"},
      {"measurement": "endosomal transit, less efficacious than ghrelin (bBRET 2xFYVE)", "setting": "hGHSR1a^WT-RLucII", "result": "~35", "unit": "%"},
      {"measurement": "Emax", "setting": "hGHSR1a^A204E", "result": "~35", "unit": "%"},
      {"measurement": "iCa2+ potency reduction at GHSR1a^E197A", "setting": "GHSR1a^E197A", "result": "~3", "unit": "fold"},
      {"measurement": "Gαq dissociation at GHSR1a^N305A in words", "setting": "GHSR1a^N305A", "result": "reduced dramatically"},
      {"measurement": "activation above baseline at any other GPCR", "setting": "GPCRome (320 receptors)", "result": "≤ 3", "unit": "fold"}
    ]}
  ]
}
